What was measured:
[1] = target: T1, erbB2 in a MCF7 derived cell line (Clone 24 cells) (Homo sapiens, UniProt P04626); test: Clone 24 phospho-erbB2 cell assay, Test (d); type: cell-based; settings: 4 hours, read-out: IC50 (μM) Test (d): Inhibition of erbB2 tyrosine kinase protein phosphorylation
T1 construct: to give a cell line that overexpresses full length wild type erbB2 protein; expressed in transfected cells
Experimental: d) Clone 24 Phospho-erbB2 Cell Assay
This immunofluorescence end point assay measures the ability of a test compound to inhibit the phosphorylation of erbB2 in a MCF7 (breast carcinoma) derived cell line which was generated by transfecting MCF7 cells with the full length erbB2 gene using standard methods to give a cell line that overexpresses full length wild type erbB2 protein (hereinafter ‘Clone 24’ cells).
Clone 24 cells were cultured in Growth Medium (phenol red free Dulbecco's modified Eagle's medium (DMEM) containing 10% foetal bovine serum, 2 mM glutamine and 1.2 mg/ml G418) in a 7.5% CO2 air incubator at 37° C. Cells were harvested from T75 stock flasks by washing once in PBS (phosphate buffered saline, pH7.4, Gibco No. 10010-015) and harvested using 2 mls of Trypsin (1.25 mg/ml)/ethylaminediaminetetraacetic acid (EDTA) (0.8 mg/ml) solution. The cells were resuspended in Growth Medium. Cell density was measured using a haemocytometer and viability was calculated using Trypan Blue solution before being further diluted in Growth Medium and seeded at a density of 1×10^4 cells per well (in 10 ul) into clear bottomed 96 well plates (Packard, No. 6005182).
3 days later, Growth Medium was removed from the wells and replaced with 100 ul Assay Medium (phenol red free DMEM, 2 mM glutamine, 1.2 mg/ml G418) either with or without erbB inhibitor compound. Plates were returned to the incubator for 4 hours and then 20 μl of 20% formaldehyde solution in PBS was added to each well and the plate was left at room temperature for 30 minutes. This fixative solution was removed with a multichannel pipette, 100 μl of PBS was added to each well and then removed with a multichannel pipette and then 50 μl PBS was added to each well. Plates were then sealed and stored for up to 2 weeks at 4° C.
Immunostaining was performed at room temperature. […]
The Fluorescence signal is each well was measured using an Acumen Explorer Instrument (Acumen Bioscience Ltd.), a plate reader that can be used to rapidly quantitate features of images generated by laser-scanning. […]

EGFR tyrosine kinase = target: T2, EGFR tyrosine kinase (Homo sapiens, UniProt P00533); test: Protein tyrosine kinase phosphorylation assay, Test (a), EGFR; type: biochemical; settings: recombinant intracellular fragment, ATP at Km; read-out: IC50 (μM) Test (a): Inhibition of EGFR tyrosine kinase protein phosphorylation
T2 construct: Recombinant intracellular fragments of EGFR, erbB2 and erbB4; made in house; host or cells: baculovirus/Sf21 insect cells (cleared lysate used)
Experimental: (§1) a) Protein Tyrosine Kinase phosphorylation Assays
(§2) This test measures the ability of a test compound to inhibit the phosphorylation of a tyrosine containing polypeptide substrate by an erb receptor tyrosine kinase enzyme.
(§3) Recombinant intracellular fragments of EGFR, erbB2 and erbB4 (accession numbers X00588, X03363 and L07868 respectively) were cloned and expressed in the baculovirus/Sf21 system. Lysates were prepared from these cells by treatment with ice-cold lysis buffer (20 mM N-2-hydroxyethylpiperizine-N′-2-ethanesulfonic acid (HEPES) pH7.5, 150 mM NaCl, 10% glycerol, 1% Triton X-100, 1.5 mM MgCl2, 1 mM ethylene glycol-bis(β-aminoethyl ether) N′,N′,N′,N′-tetraacetic acid (EGTA), plus protease inhibitors and then cleared by centrifugation.
(§4) Constitutive kinase activity of these recombinant proteins was determined by their ability to phosphorylate a synthetic peptide (made up of a random co-polymer of Glutamic Acid, Alanine and Tyrosine in the ratio of 6:3:1). Specifically, Maxisorb™ 96-well immunoplates were coated with synthetic peptide (0.2 μg of peptide in a 200 μl phosphate buffered saline (PBS) solution and incubated at 4° C. overnight). Plates were washed in 50 mM HEPES pH 7.4 at room temperature to remove any excess unbound synthetic peptide. […]
(§5) The immobilised phospho-peptide product of the reaction was detected by immunological methods. […] After further washing, HRP activity in each well of the plate was measured colorimetrically using 22′-Azino-di-[3-ethylbenzthiazoline sulfonate (6)]diammonium salt crystals (ABTS™ from Roche) as a substrate.
(§6) Quantification of colour development and thus enzyme activity was achieved by the measurement of absorbance at 405 nm on a Molecular Devices ThermoMax microplate reader. Kinase inhibition for a given compound was expressed as an IC50 value. […] The range of phosphorylation was calculated from the positive (vehicle plus ATP) and negative (vehicle minus ATP) control values.

erbB2 tyrosine kinase = target: T3, erbB2 tyrosine kinase (Homo sapiens, UniProt P04626); test: Protein tyrosine kinase phosphorylation assay, Test (a), erbB2; type: biochemical; settings: recombinant intracellular fragment, ATP at Km; read-out: IC50 (μM) Test (a): Inhibition of erbB2 tyrosine kinase protein phosphorylation
T3 construct: Recombinant intracellular fragments of EGFR, erbB2 and erbB4; made in house; host or cells: baculovirus/Sf21 insect cells (cleared lysate used)
Experimental: as §1, §2, §3, §4, §5, §6

T2 sequence (P00533 669-1210 limits assumed): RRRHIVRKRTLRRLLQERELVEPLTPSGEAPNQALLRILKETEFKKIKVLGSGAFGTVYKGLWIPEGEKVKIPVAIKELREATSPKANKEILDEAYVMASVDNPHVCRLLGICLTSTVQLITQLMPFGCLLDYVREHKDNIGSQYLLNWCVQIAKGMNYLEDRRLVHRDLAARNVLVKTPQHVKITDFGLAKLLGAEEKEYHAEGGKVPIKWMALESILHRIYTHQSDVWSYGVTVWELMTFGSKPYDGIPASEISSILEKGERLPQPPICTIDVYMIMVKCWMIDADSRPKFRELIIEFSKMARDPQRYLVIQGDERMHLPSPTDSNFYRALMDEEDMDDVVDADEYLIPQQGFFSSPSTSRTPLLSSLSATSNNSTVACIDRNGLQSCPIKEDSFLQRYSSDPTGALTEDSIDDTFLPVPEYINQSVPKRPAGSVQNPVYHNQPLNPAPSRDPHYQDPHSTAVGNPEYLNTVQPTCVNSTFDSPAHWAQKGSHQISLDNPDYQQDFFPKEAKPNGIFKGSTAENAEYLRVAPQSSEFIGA
T3 sequence (P04626 676-1255 limits assumed): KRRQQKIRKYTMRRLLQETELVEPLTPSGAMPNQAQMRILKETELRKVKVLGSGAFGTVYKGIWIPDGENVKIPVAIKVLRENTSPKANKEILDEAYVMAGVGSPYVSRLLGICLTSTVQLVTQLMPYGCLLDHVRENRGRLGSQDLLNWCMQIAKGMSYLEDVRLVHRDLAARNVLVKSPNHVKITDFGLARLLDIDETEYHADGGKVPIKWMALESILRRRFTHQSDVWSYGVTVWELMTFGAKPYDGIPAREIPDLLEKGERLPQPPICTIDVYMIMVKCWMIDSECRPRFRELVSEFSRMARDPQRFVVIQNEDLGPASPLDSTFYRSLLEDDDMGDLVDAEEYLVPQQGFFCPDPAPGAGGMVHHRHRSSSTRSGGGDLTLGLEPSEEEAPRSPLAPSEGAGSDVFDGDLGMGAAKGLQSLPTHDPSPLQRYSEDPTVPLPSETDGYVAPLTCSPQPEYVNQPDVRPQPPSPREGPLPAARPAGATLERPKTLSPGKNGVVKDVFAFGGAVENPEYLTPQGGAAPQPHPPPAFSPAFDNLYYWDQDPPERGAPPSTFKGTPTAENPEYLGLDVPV
T1 sequence (P04626 23-1255): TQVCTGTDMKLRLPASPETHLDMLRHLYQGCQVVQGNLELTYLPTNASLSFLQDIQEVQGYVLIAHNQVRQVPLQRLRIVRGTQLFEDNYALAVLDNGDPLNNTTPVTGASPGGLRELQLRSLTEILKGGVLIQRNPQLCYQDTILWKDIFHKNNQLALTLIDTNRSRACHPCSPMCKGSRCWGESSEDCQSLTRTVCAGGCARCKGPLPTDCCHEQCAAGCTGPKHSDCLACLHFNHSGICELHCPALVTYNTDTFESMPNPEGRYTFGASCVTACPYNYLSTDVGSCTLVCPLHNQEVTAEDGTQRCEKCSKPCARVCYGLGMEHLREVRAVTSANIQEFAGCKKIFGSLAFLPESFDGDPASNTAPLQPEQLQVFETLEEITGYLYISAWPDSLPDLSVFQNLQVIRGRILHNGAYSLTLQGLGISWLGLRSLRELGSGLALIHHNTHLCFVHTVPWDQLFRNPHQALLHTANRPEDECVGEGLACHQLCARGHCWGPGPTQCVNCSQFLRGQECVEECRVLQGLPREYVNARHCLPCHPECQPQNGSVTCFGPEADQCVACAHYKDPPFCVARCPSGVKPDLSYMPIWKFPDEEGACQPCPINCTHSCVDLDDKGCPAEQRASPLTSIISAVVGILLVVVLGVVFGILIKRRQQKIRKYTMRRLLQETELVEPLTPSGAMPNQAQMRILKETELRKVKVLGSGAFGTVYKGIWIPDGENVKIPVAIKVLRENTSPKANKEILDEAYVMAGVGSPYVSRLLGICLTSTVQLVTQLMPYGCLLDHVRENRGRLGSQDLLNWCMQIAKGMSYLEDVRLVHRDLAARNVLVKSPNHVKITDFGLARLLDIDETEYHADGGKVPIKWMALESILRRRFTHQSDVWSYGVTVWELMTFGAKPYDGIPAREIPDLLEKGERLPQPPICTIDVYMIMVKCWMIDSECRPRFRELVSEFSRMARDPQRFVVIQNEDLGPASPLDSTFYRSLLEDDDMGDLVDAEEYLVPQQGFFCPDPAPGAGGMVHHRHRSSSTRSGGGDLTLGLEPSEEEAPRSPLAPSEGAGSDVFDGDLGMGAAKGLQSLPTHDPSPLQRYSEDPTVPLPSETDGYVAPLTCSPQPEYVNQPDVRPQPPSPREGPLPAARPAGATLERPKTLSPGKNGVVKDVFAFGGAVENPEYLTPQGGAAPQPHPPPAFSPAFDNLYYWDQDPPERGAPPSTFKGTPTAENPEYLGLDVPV

Row | Compound | IC50 [1] [µM] | IC50 (EGFR tyrosine kinase) [µM] | IC50 (erbB2 tyrosine kinase) [µM]
1 | O=C(CO)N(CCOc1cccc2ncnc(Nc3ccc(OCc4ccccn4)c(Cl)c3)c12)C1CCOCC1 [Example 21, N-{2-[(4-{[3-Chloro-4-(pyridin-2-ylmethoxy)phenyl]amino}quinazolin-5-yl)oxy]ethyl}-2-hydroxy-N-(tetrahydro-2H-pyran-4-yl)acetamide] | 0.009 | 0.414 | 0.002
2 | CC(O)C(=O)N(C)CCOc1cccc2ncnc(Nc3ccc(OCc4ccccn4)c(Cl)c3)c12 (stereo not drawn) [Example 28, N-{2-[(4-{[3-Chloro-4-(pyridin-2-ylmethoxy)phenyl]amino}quinazolin-5-yl)oxy]ethyl}-2-hydroxy-N-methylpropanamide] | 0.112 | 0.197 | 0.002
3 | CC(=O)N(C)C[C@@H](C)Oc1cccc2ncnc(Nc3ccc(Oc4ccc(C)nc4)c(C)c3)c12 [Example 104, N-Methyl-N-((2R)-2-{[4-({3-methyl-4-[(6-methylpyridin-3-yl)oxy]phenyl}amino)quinazolin-5-yl]oxy}propyl)acetamide] | 0.021 | 1.88 | 0.017

Reference: US7625908B2, “Quinazoline derivatives” (AstraZeneca AB, priority 2003, dated 2009)
